Experimental data taken from the supplement of paper PMC10307832.

Columns and labels:
Experiment in all cases: relative viability (nuclei count vs DMSO), 5 days (fraction); higher = more cells survive
[1] = compound: C(C(=O)C(=O)O)Br [Bromopyruvate] + COc1cc2c(Oc3ccc(NC(=O)C4(C(=O)Nc5ccc(F)cc5)CC4)cc3F)ccnc2cc1OCCCN1CCOCC1 [Foretinib] (partner 0.25 µM)
Outline: (§1)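 Lung cancer cell lines, seeded in 1536-well plates, were treated the following day by pin tool with a single drug or with five library-drug doses (not always all listed) in √10 steps on top of a fixed anchor-drug dose. Cells were fixed and nuclei stained in one step after 5 days, and nuclei were counted. Relative viability is the nuclei count for treated wells divided by that for vehicle wells, reported as medians of duplicate plates.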

[2] = compound: CC(O)(CS(=O)(=O)c1ccc(F)cc1)C(=O)Nc1ccc(C#N)c(C(F)(F)F)c1 [Bicalutamide] + CS(=O)(=O)N1CCN(Cc2cc3nc(-c4cccc5[nH]ncc45)nc(N4CCOCC4)c3s2)CC1 [Pictilisib] (partner 1 µM)
Outline: as §1

[3] = compound: C(C(=O)C(=O)O)Br [Bromopyruvate] + C[C@@H](Oc1cc(-c2cnn(C3CCNCC3)c2)cnc1N)c1c(Cl)ccc(F)c1Cl [Crizotinib] (partner 1 µM)
Outline: as §1

[4] = compound: C(C(=O)C(=O)O)Br [Bromopyruvate] + C[C@]1(O)C[C@@H](c2nc(-c3ccc4ccc(-c5ccccc5)nc4c3)c3c(N)nccn32)C1 [Linsitinib] (partner 1 µM)
Outline: as §1

Cell Line | relative viability ([1]; first compound 1 µM) | relative viability ([1]; first compound 3.162 µM) | relative viability ([1]; first compound 10 µM) | relative viability ([1]; first compound 31.62 µM) | relative viability ([1]; first compound 100 µM) | relative viability ([2]; first compound 0.08 µM) | relative viability ([2]; first compound 0.253 µM) | relative viability ([2]; first compound 0.8 µM) | relative viability ([2]; first compound 2.53 µM) | relative viability ([3]; first compound 1 µM) | relative viability ([3]; first compound 3.162 µM) | relative viability ([3]; first compound 10 µM) | relative viability ([3]; first compound 31.62 µM) | relative viability ([3]; first compound 100 µM) | relative viability ([4]; first compound 1 µM) | relative viability ([4]; first compound 3.162 µM) | relative viability ([4]; first compound 10 µM) | relative viability ([4]; first compound 31.62 µM) | relative viability ([4]; first compound 100 µM)
LK-2 | 0.865 | 1.35 | 1.57 | 1.12 | 0.894 | 0.591 | 0.442 | 0.754 | 0.667 | 0.292 | 0.238 | 0.207 | 0.223 | 0.257 | 0.474 | 0.674 | 0.541 | 0.509 | 0.524
201T | 1.15 | 1.08 | 1.29 | 1.21 | 1.29 | 0.685 | 0.658 | 0.742 | 0.674 | 1.06 | 1.03 | 1.02 | 1.02 | 1.08 | 1.05 | 1.07 | 1.06 | 1.02 | 1.11
NCI-H647 | 1.26 | 1.2 | 1.31 | 1.21 | 1.06 | 0.358 | 0.348 | 0.643 | 0.339 | 1.05 | 1.18 | 1.25 | 1.16 | 1.1 | 1.03 | 1.48 | 1.55 | 1.15 | 0.806
H3255 | 0.902 | 0.806 | 0.93 | 0.938 | 0.922 | 0.521 | 0.376 | 0.48 | 0.462 | 0.929 | 0.987 | 0.915 | 0.803 | 0.973 | 0.945 | 1.02 | 0.997 | 0.967 | 1.1
